Results on three compounds are retold here after patent US4690926A, “Boxazomycin A and B, new antibiotics containing benzoxazole nucleus” (Bristol-Myers Company, priority 1986, dated 1987).

SMILES strings stand for the structures. Converted amounts (≈) assume the structure as drawn.

This assay has as its system S. epidermidis A22547. The assay is classed as cell-based. The conditions noted are these: Staphylococcus epidermidis, Nutrient agar (Eiken), kanamycin-resistant.
In turn, `Cc1cc(O)c(C(N)=O)c2nc(-c3nc(CO)ncc3O)oc12` [Boxazomycin A] showed an MIC of 0.4 µg/mL (≈ 1.26 µM).

`Cc1ncc(O)c(-c2nc3c(C(N)=O)c(O)cc(C)c3o2)n1` [Boxazomycin B] yielded an MIC of 0.2 µg/mL (≈ 0.666 µM). Take `NC[C@H]1O[C@H](O[C@H]2[C@H](O)[C@@H](O[C@H]3O[C@H](CO)[C@@H](O)[C@H](N)[C@H]3O)[C@H](N)C[C@@H]2N)[C@H](O)[C@@H](O)[C@@H]1O` [Kanamycin, kanamycin, reference compound]: the MIC was 25 µg/mL (≈ 51.6 µM).
